Assay results published in patent publication US10435389B2, “Octahydrocyclopenta[c]pyrrole allosteric inhibitors of SHP2” (Krouzon Pharmaceuticals, Inc., priority 2017, dated 2019).
Where a name gives a salt, the structure may show the parent alone.

Molecular target: T1, human recombinant SHP2 (Homo sapiens, UniProt Q06124)
T1 sequence (Q06124 1-593): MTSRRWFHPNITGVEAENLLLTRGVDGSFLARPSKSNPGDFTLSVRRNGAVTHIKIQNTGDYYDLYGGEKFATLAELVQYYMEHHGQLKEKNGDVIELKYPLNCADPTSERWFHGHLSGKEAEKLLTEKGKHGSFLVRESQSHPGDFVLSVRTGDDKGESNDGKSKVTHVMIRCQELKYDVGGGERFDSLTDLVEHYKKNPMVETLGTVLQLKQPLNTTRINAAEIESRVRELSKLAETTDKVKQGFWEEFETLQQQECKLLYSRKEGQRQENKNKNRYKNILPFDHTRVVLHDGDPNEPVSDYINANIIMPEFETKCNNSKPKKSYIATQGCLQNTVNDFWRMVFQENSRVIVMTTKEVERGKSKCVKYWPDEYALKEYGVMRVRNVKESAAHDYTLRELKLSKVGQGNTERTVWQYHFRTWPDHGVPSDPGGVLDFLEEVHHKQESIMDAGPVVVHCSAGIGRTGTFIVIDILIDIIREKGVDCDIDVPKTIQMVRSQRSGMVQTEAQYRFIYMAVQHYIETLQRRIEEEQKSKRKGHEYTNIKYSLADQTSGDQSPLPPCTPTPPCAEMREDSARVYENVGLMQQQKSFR
Experiment: Protein Tyrosine Phosphatase (PTP) assay and IC50 measurements of inhibitors (DiFMUP fluorescence)
Assay type: biochemical
Conditions: 100 ng/mL human recombinant SHP2, 0.5 μM activating peptide IRS1_pY1172(dPEG8)pY1222, substrate DiFMUP 200 μM, room temperature; read-out: IC50 (SHP2 inhibition)
Protocol: Example E: Protein Tyrosine Phosphatase (PTP) Assay and IC50 Measurements of Inhibitors
The phosphatase activity of SHP2 was monitored using the surrogate substrate DiFMUP in a fluorescence assay format. The phosphatase reactions were performed at room temperature in 96-well black polystyrene plate, flat bottom plate using a final reaction volume of 100 μL with the following assay buffer conditions: 60 mM HEPES, pH 7.2, 75 mM NaCl, 75 mM KCl, 1 mM EDTA, 0.05% Tween-20, 5 mM DTT.
To determine the IC50 of a compound, an eight-point dose response curve was generated in duplicate. Compounds were incubated at concentrations ranging from 0 μM to 10 μM with 100 ng/mL of human recombinant SHP2 and 0.5 μM of activating peptide IRS1_pY1172(dPEG8)pY1222 (sequence H2N-LN(pY)IDLDLV-(dPEG8)LST(pY)ASINFQK-amide) (SEQ ID NO 1). After 30 min incubation at room temperature (23-27° C.), the surrogate substrate DiFMUP (200 μM) was added to the reaction and incubated at room temperature for 30 min. The fluorescence signal was monitored using a microplate reader (Spectramax M5e, […]) using excitation and emission wavelengths of 340 and 450 nm, respectively. The inhibitor dose-response curves were analyzed using SoftmaxPro v5.2 software.

Compound	IC50
C[C@]1(N)C[C@H]2CN(c3cnc(-c4cccnc4Cl)c(N)n3)C[C@H]2C1 [Example 4, (3aR,5r,6aS)-2-(6-amino-5-(2-chloropyridin-3-yl)pyrazin-2-yl)-5-methyloctahydrocyclopenta[c]pyrrol-5-amine]	< 9 µM
C[C@]1(N)C[C@H]2CN(c3cnc(-c4cccc(Cl)c4F)c(N)n3)C[C@H]2C1 [Example 5, (3aR,5r,6aS)-2-(6-amino-5-(3-chloro-2-fluorophenyl)pyrazin-2-yl)-5-methyloctahydrocyclopenta[c]pyrrol-5-amine]	< 9 µM
C[C@@]1(N)C[C@H]2CN(c3cnc(-c4cccc(Cl)c4Cl)c(N)n3)C[C@H]2C1 [Example 7, (3aR,5s,6aS)-2-(6-amino-5-(2,3-dichlorophenyl)pyrazin-2-yl)-5-methyloctahydrocyclopenta[c]pyrrol-5-amine]	< 9 µM
C[C@]1(N)C[C@H]2CN(c3ncc(-c4cccc(Cl)c4Cl)c(N)n3)C[C@H]2C1 [Example 11, (3aR,5r,6aS)-2-(4-amino-5-(2,3-dichlorophenyl)pyrimidin-2-yl)-5-methyloctahydrocyclopenta[c]pyrrol-5-amine]	< 9 µM
C[C@]1(N)C[C@H]2CN(c3ncc(-c4cccnc4Cl)c(N)n3)C[C@H]2C1 [Example 13, (3aR,5r,6aS)-2-(4-amino-5-(2-chloropyridin-3-yl)pyrimidin-2-yl)-5-methyloctahydrocyclopenta[c]pyrrol-5-amine]	> 10 µM

The next lines start with the values.

IC50	Compound
< 9 µM	Cc1cccc(-c2ncc(N3C[C@@H]4C[C@](C)(N)C[C@@H]4C3)nc2N)c1Cl [Example 1, (3aR,5r,6aS)-2-(6-amino-5-(2-chloro-3-methylphenyl)pyrazin-2-yl)-5-methyloctahydrocyclopenta[c]pyrrol-5-amine hydrochloride salt]
< 9 µM	C[C@]1(N)C[C@H]2CN(c3cnc(-c4cccc(Cl)c4Cl)c(N)n3)C[C@H]2C1 [Example 2, (3aR,5r,6aS)-2-(6-amino-5-(2,3-dichlorophenyl)pyrazin-2-yl)-5-methyloctahydrocyclopenta[c]pyrrol-5-amine]
< 9 µM	Cc1cccc(-c2ncc(N3C[C@@H]4C[C@@](C)(N)C[C@@H]4C3)nc2N)c1Cl [Example 8, (3aR,5s,6aS)-2-(6-amino-5-(2-chloro-3-methylphenyl)pyrazin-2-yl)-5-methyloctahydrocyclopenta[c]pyrrol-5-amine]
< 9 µM	C[C@]1(N)C[C@H]2CN(c3ncc(-c4cccc(F)c4Cl)c(N)n3)C[C@H]2C1 [Example 12, (3aR,5r,6aS)-2-(4-amino-5-(2-chloro-3-fluorophenyl)pyrimidin-2-yl)-5-methyloctahydrocyclopenta[c]pyrrol-5-amine]
